8 compounds from US12403144B2, “HECT E3 ligase inhibitors and uses thereof” (IFOM FONDAZIONE ISTITUTO FIRC DI ONCOLOGIA MOLECOLARE, priority 2019, dated 2025) can be followed below.

SMILES strings stand for the structures. Where a name gives a salt, the structure may show the parent alone.

By inhibition is commonly meant the change of the read-out against control, counted positive when it falls.

What all share (format): biochemical
Test [1] addresses T1, His-MPB tagged HECT of HECW2 (E3 ligase) (Homo sapiens, UniProt Q9P2P5).
T1 construct: using His-MPB tagged HECT of HECW2 (E3 ligase) instead of untagged HECT of NEDD4 wild-type (WT) (E3 ligase); made in house
Briefly: In vitro ubiquitination assay TR-FRET based, HECW2. The note with it: read-out: percentage of inhibition (HECW2). How it is done: (§1) To determine the selectivity of identified NEDD4 inhibitors, it was quantitatively measured the self-ubiquitination process of the E3 HECT ligase belonging to NEDD4 family such as NEDD4L, HECW2 and ITCH in presence or not of some compounds such as 5, 9, 12, 29, 42, 45, 56, 58, 61, 77, 78, 85 and 94 employing TR-FRET based assays.
The assay was performed as described above in the paragraph titled “In vitro ubiquitination assay TR-FRET based” under the heading “2.1. NEDD4 UBIQUITINATION ASSAYS” using His-MPB tagged HECT of HECW2 (E3 ligase) instead of untagged HECT of NEDD4 wild-type (WT) (E3 ligase). In this case, final E1, E2 and E3 concentrations in the assay buffer (Tris-HCl pH 7.6 25 mM, NaCl 100 mM, MgCl2 5 mM and Tween 0.01%) were 30, 350 and 62.5 nanomolars, respectively. His-MPB tagged HECT of HECW2 (E3 ligase) enzyme was produced and purified as reported in E. Maspero et al. Methods Mol Biol. 1449:153-60 (2016) and in E. Maspero et al. EMBO Reports 12:342-349(2011).

Test [2] deals with T2, untagged HECT of NEDD4L (E3 ligase) (Homo sapiens, UniProt Q96PU5).
T2 construct: using untagged HECT of NEDD4L (E3 ligase) instead of untagged HECT of NEDD4 wild-type (WT) (E3 ligase); made in house; host or cells: bacteria (printed for the NEDD4L HECT of the western-blot assay; not repeated here)
T2 sequence (Q96PU5 594-975 limits assumed): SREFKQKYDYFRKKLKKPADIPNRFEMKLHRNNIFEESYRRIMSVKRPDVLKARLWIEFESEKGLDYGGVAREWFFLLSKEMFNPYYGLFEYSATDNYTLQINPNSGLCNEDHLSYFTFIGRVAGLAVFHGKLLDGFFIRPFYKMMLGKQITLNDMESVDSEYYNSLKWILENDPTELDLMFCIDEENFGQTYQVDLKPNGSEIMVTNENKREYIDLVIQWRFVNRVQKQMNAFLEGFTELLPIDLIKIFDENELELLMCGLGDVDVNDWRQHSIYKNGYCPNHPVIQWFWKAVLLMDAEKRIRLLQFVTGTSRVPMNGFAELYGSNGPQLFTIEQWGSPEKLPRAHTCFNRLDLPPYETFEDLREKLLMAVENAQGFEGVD
Nature of the test: In vitro ubiquitination assay TR-FRET based, NEDD4L. Particulars: read-out: percentage of inhibition (NEDD4L). The method, then:
as §1
The assay was performed as described above in the paragraph titled “In vitro ubiquitination assay TR-FRET based” under the heading “2.1. NEDD4 UBIQUITINATION ASSAYS” using untagged HECT of NEDD4L (E3 ligase) instead of untagged HECT of NEDD4 wild-type (WT) (E3 ligase). In this case, final E1, E2 and E3 concentrations in the assay buffer (Tris-HCl pH 7.6 25 mM, NaCl 100 mM, MgCl2 5 mM and Tween 0.01%) were 30, 350 and 31.3 nanomolars, respectively. Untagged HECT NEDD4L (E3 ligase) enzyme was produced and purified as reported in E. Maspero et al. Methods Mol Biol. 1449:153-60 (2016) and in E. Maspero et al. EMBO Reports 12:342-349(2011).

Test [3] addresses T3, untagged HECT of ITCH (E3 ligase) (Homo sapiens, UniProt Q96J02).
T3 construct: using untagged HECT of ITCH (E3 ligase) instead of untagged HECT of NEDD4 wild-type (WT) (E3 ligase); made in house
Briefly: In vitro ubiquitination assay TR-FRET based, ITCH. The note with it: read-out: percentage of inhibition (ITCH). How it is done: as §1
The assay was performed as described above in the paragraph titled “In vitro ubiquitination assay TR-FRET based” under the heading “2.1. NEDD4 UBIQUITINATION ASSAYS” using untagged HECT of ITCH (E3 ligase) instead of untagged HECT of NEDD4 wild-type (WT) (E3 ligase). In this case, final E1, E2 and E3 concentrations in the assay buffer (Tris-HCl pH 7.6 25 mM, NaCl 100 mM, MgCl2 5 mM and Tween 0.01%) were 30, 350 and 60 nanomolars, respectively. Untagged HECT of ITCH (E3 ligase) enzyme was produced and purified as reported in E. Maspero et al. Methods Mol Biol. 1449:153-60 (2016) and in E. Maspero et al. EMBO Reports 12:342-349(2011).

T1 sequence (Q9P2P5 1237-1572 limits assumed): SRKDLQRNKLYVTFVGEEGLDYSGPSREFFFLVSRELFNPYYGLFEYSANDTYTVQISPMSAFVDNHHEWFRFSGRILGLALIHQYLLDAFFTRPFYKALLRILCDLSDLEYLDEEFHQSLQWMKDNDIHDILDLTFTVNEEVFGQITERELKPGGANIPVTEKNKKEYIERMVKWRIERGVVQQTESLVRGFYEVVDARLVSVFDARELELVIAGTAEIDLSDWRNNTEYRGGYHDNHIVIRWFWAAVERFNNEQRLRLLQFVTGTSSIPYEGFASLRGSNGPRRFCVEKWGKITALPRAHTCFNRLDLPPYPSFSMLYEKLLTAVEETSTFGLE
T3 sequence (Q96J02 569-903 limits assumed): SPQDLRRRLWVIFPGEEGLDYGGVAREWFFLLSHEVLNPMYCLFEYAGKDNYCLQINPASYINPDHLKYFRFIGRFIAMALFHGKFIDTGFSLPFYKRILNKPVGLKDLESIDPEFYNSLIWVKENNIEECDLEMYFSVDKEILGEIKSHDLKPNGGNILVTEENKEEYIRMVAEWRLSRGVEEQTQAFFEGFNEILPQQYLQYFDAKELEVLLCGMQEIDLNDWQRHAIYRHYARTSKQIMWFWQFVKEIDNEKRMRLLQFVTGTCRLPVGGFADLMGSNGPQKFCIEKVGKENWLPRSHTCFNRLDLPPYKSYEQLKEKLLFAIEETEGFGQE

Take `CON(C)C(=O)/C=C/CN(C)CCCCN1c2ccccc2CCc2ccc(Cl)cc21` [Compound 9, (E)-4-[4-(3-Chloro-10,11-dihydro-5H-dibenzo[b,f]azepin-5-yl)butyl-methyl-amino]-N-methoxy-N-methyl-but-2-enamide]: the results for the inhibition at 11 µM in test [1], in test [2] and in test [3] were below 5%, below 5% and below 20%, respectively.

Consider `CCOC(=O)/C=C/CNCCCCN1c2cc(Cl)ccc2C(=O)N(Cc2ccccc2)c2ccccc21` [Compound 56, Ethyl (E)-4-((4-(10-benzyl-3-chloro-11-oxo-10,11-dihydro-5H-dibenzo[b,e][1,4]diazepin-5-yl)butyl)amino)but-2-enoate maleate], for which the inhibition at 11 µM in test [1] was below 15%; in test [2], at most 20%; in test [3] it was below 15%.

On to `C#CCON(C)C(=O)/C=C/CN(C)CCCCN1c2ccccc2CCc2ccc(Cl)cc21` [Compound 77, (E)-4-[4-(3-Chloro-10,11-dihydro-5H-dibenzo[b,f]azepin-5-yl)butyl-methyl-amino]-N-methyl-N-prop-2-ynoxy-but-2-enamide maleate], for which the inhibition at 11 µM in test [1] is below 15%; in test [2] it was below 15%; in test [3], below 5%.

As to `CN(C/C=C/C#N)CCCCN1c2cc(Cl)ccc2C(=O)N(Cc2ccccc2)c2ccccc21` [Compound 61, (E)-4-{[4-(10-benzyl-3-chloro-11-oxo-10,11-dihydro-5H-dibenzo[b,e][1,4]diazepin-5-yl)butyl](methyl)amino}but-2-enenitrile maleate], the inhibition at 11 µM in test [1], in test [2] and in test [3] was below 5% throughout.

`CN(C/C=C/C(=O)OCCOCCOCCOCCNC(=O)CCCC[C@@H]1SC[C@@H]2NC(=O)N[C@@H]21)CCCCN1c2ccccc2CCc2ccc(Cl)cc21` [Compound 94, 2-[2-(2-{2-[5-((3aS,4S,6aR)-2-Oxo-hexahydro-thieno[3,4-d]imidazol-4-yl)-pentanoylamino]-ethoxy}-ethoxy)-ethoxy]-ethyl (E)-4-{[4-(3-chloro-10,11-dihydro-dibenzo[b,f]azepin-5-yl)-butyl]-methyl-amino}but-2-enoate]: the inhibition at 11 µM in test [1], in test [2] and in test [3] was below 15% throughout.

`CCOC(=O)/C=C/CNCCCCN1c2ccccc2C(=O)N(C)c2ccc(Cl)cc21` [Compound 29, Ethyl (E)-4-{[4-(7-chloro-10-methyl-11-oxo-10,11-dihydro-5H-dibenzo[b,e][1,4]diazepin-5-yl)butyl]amino}but-2-enoate maleate]: the values for the inhibition at 11 µM in test [1], in test [2] and in test [3] were below 15%, at most 20% and below 5%, respectively.

For `CONC(=O)/C=C/CNCCCCN1c2ccccc2CCc2ccc(Cl)cc21` [Compound 78, (E)-4-[4-(3-Chloro-10,11-dihydro-5H-dibenzo[b,f]azepin-5-yl)butylamino]-N-methoxy-but-2-enamide maleate], the inhibition at 11 µM in test [1] was below 5%; in test [2], below 5%; in test [3] it was below 20%.

Turning to `COC(=O)/C=C/CN(C)CCCCN1c2cc(Cl)ccc2C(=O)N(Cc2ccccc2)c2ccccc21` [Compound 58, Methyl (E)-4-{[4-(10-benzyl-3-chloro-11-oxo-10,11-dihydro-5H-dibenzo[b,e][1,4]diazepin-5-yl)butyl](methyl)amino}but-2-enoate maleate], the figures for the inhibition at 11 µM in test [1], in test [2] and in test [3] were below 5%, below 5% and below 15%, respectively.
